Measurements reported in ChEMBL document CHEMBL1201862, “PubChem BioAssay data set” (2004).
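In this assay, cells in 96-well plates receive the compound at five concentrations for 48 hours. Endpoints are linearly interpolated between the surrounding concentrations. GI50: concentration for 50% inhibition of growth.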 Activity calls are given as the source filed them. Cut-off read from the data, not from the text of the source: active = GI50 up to about 1.1 µM and inactive = higher.

How the values were obtained:
Assay in all cases: NCI anticancer screen, dose series, 48 h
[1] = test system: 786-0
[2] = test system: CAKI-1
[3] = test system: CCRF-CEM
[4] = test system: EKVX
[5] = test system: HL-60
[6] = test system: HOP-92
[7] = test system: KM12
[8] = test system: Malme-3M
[9] = test system: OVCAR-4
[10] = test system: OVCAR-5
[11] = test system: SF-268
[12] = test system: SK-MEL-2
[13] = test system: SNB-75
[14] = test system: U-251
[15] = test system: COLO 205
[16] = test system: HCC 2998

Measured: GI50

CC(=O)CNC(=O)OC(C)(C)C
inactive: [1] > 100 µM | [2] > 100 µM | [3] > 100 µM | [4] > 100 µM | [5] > 100 µM | [6] > 100 µM | [7] > 100 µM | [8] > 100 µM | [9] > 100 µM | [10] > 100 µM | [11] > 100 µM | [12] > 100 µM | [13] > 100 µM | [14] > 100 µM

C#CN1C(=O)c2c(c(-c3ccccc3)c(-c3ccc(Oc4ccc(-c5c(-c6ccccc6)c6c(c(-c7ccccc7)c5-c5ccccc5)C(=O)N(C#C)C6=O)cc4)cc3)c(-c3ccccc3)c2-c2ccccc2)C1=O
inactive: [1] > 100 µM | [3] > 100 µM | [15] > 100 µM | [4] > 100 µM | [16] > 100 µM | [5] > 100 µM | [6] 21.9 µM | [7] > 100 µM | [8] > 100 µM | [9] > 100 µM | [10] > 100 µM | [11] > 100 µM | [12] > 100 µM | [13] > 100 µM | [14] > 100 µM

Clc1cccc(-c2nnc(-c3nn(-c4ccccc4)c4nc5ccccc5nc34)o2)c1
inactive: [1] > 100 µM | [2] > 100 µM | [3] > 100 µM | [15] > 100 µM | [4] > 100 µM | [16] > 100 µM | [5] > 100 µM | [7] > 100 µM | [8] > 100 µM | [9] > 100 µM | [10] > 100 µM | [11] > 100 µM | [12] > 100 µM | [13] 36.6 µM | [14] > 100 µM

COc1ccc(/C(=N\NC(=N)N)C(c2ccc(OC)cc2)C2OC(=O)c3ccccc32)cc1 (configuration not stated)
inactive: [1] > 100 µM | [2] > 100 µM | [3] > 100 µM | [15] > 100 µM | [16] > 100 µM | [5] > 100 µM | [6] > 100 µM | [7] > 100 µM | [8] > 100 µM | [9] > 100 µM | [10] > 100 µM | [11] > 100 µM | [13] 67.5 µM | [14] > 100 µM

O=C1c2ccccc2C(=O)N1C/C=N/NS(=O)(=O)c1cccc([N+](=O)[O-])c1
inactive: [1] > 100 µM | [2] > 100 µM | [3] > 100 µM | [15] > 100 µM | [4] > 100 µM | [16] > 100 µM | [5] > 100 µM | [7] > 100 µM | [8] > 100 µM | [9] > 100 µM | [11] > 100 µM | [12] > 100 µM | [13] > 100 µM | [14] > 100 µM

CC1(C)CC(=O)C2=C(C1)S/C(=C1/SC3=C(S1)C(=O)CC(C)(C)C3)S2
inactive: [1] > 251 µM | [3] > 251 µM | [15] > 251 µM | [4] > 251 µM | [16] > 251 µM | [5] > 251 µM | [6] > 251 µM | [7] > 251 µM | [8] > 251 µM | [11] > 251 µM | [12] > 251 µM | [13] > 251 µM | [14] > 251 µM

CCOc1ccc(N2C(=O)/C(=C/c3ccc(N(CCC#N)CCC#N)cc3)N=C2c2cc([N+](=O)[O-])ccc2Cl)cc1
inactive: [1] 12.4 µM | [2] 14.8 µM | [15] 17.6 µM | [4] 27.4 µM | [16] 37.2 µM | [5] 47.6 µM | [7] 18.9 µM | [9] 59 µM | [10] > 100 µM | [11] 30.8 µM | [12] > 100 µM | [13] 30.3 µM | [14] 51.5 µM

O=C(/C=C/c1ccc(OCCCCCCCCCCOc2ccc(/C=C/C(=O)c3ccc(Cl)cc3)cc2)cc1)c1ccc(Cl)cc1
inactive: [1] > 100 µM | [2] > 100 µM | [3] > 100 µM | [15] > 100 µM | [4] > 100 µM | [16] > 100 µM | [5] > 100 µM | [6] > 100 µM | [7] > 100 µM | [8] > 100 µM | [10] > 100 µM | [11] > 100 µM | [12] > 100 µM | [13] > 100 µM | [14] > 100 µM

O=C(COc1ccc2c(=O)cc(-c3ccc(Cl)cc3)oc2c1)N1CCN(c2ccccc2)CC1
inactive: [1] > 100 µM | [2] > 100 µM | [15] 4.37 µM | [4] > 100 µM | [16] > 100 µM | [5] 59.3 µM | [6] 64.1 µM | [7] 89.9 µM | [8] > 100 µM | [9] > 100 µM | [10] > 100 µM | [11] > 100 µM | [12] > 100 µM | [13] > 100 µM | [14] > 100 µM

CC(=O)/C=C/c1cccc(N=S)c1
inactive: [1] 6 µM | [2] > 50.9 µM | [3] 8.24 µM | [15] 20.1 µM | [4] > 40.8 µM | [16] 12.7 µM | [5] 5.79 µM | [6] > 100 µM | [7] 6.68 µM | [8] > 73.8 µM | [9] 52.2 µM | [10] > 69 µM | [11] > 30.3 µM | [13] 21.1 µM | [14] 6.64 µM

O=C(CC(=O)c1cccc2ccccc12)C(=O)NC1C2CC3CC(C2)CC1C3 (configuration not stated)
inactive: [1] > 100 µM | [2] > 100 µM | [3] > 100 µM | [15] > 100 µM | [4] > 100 µM | [16] > 100 µM | [5] 77.1 µM | [6] 34.4 µM | [7] > 100 µM | [8] > 100 µM | [9] > 100 µM | [10] > 100 µM | [11] > 100 µM | [14] > 100 µM

COc1ccc(C2S/C(=C\c3ccc([N+](=O)[O-])cc3)C(=O)N2NC(=O)Cc2ccccc2)cc1 (configuration not stated)
inactive: [1] > 100 µM | [2] > 100 µM | [3] 82.8 µM | [15] > 100 µM | [5] 92.9 µM | [6] > 100 µM | [7] > 100 µM | [8] > 100 µM | [9] > 100 µM | [10] > 100 µM | [11] > 100 µM | [12] > 100 µM | [13] 53.8 µM | [14] 79.3 µM

COC(=O)C1=C(C)N(NC(N)=O)C2(N)N(NC(N)=O)C(C)=C(C(=O)OC)C12C(=O)OC (configuration not stated)
inactive: [1] > 100 µM | [2] > 100 µM | [3] > 100 µM | [15] > 100 µM | [4] > 100 µM | [16] > 100 µM | [5] > 100 µM | [6] > 100 µM | [7] > 10 µM | [8] > 100 µM | [9] > 100 µM | [10] > 100 µM | [11] > 100 µM | [12] > 100 µM | [14] > 100 µM

O=C1c2ccccc2C(=O)c2nc(-c3ccccc3)c(-c3ccccc3)nc21
inactive: [1] > 61.7 µM | [2] > 100 µM | [3] > 100 µM | [15] 17.7 µM | [4] > 100 µM | [16] > 100 µM | [6] 20.3 µM | [7] > 100 µM | [8] 1.22 µM | [9] 7.08 µM | [10] > 100 µM | [11] > 100 µM | [12] 10.8 µM | [13] 8.15 µM | [14] > 67 µM

Nc1nc2ncn(CC(O)CO)c2c(=S)[nH]1 (configuration not stated)
inactive: [1] > 100 µM | [2] > 100 µM | [3] > 100 µM | [15] > 100 µM | [4] > 100 µM | [5] > 100 µM | [6] > 100 µM | [7] > 100 µM | [8] > 100 µM | [9] > 100 µM | [10] > 100 µM | [11] > 100 µM | [12] > 100 µM | [13] > 100 µM | [14] > 100 µM

COc1ccc(-c2nc3c(nc2-c2ccc(OC)cc2)C(N)=NS(=O)(=O)N3)cc1
inactive: [1] > 100 µM | [2] > 100 µM | [3] > 100 µM | [15] > 100 µM | [4] > 100 µM | [16] > 100 µM | [5] > 100 µM | [7] > 100 µM | [8] > 100 µM | [10] > 100 µM | [11] > 100 µM | [12] > 100 µM | [13] > 100 µM | [14] > 100 µM

O=C(/C=C1/Nc2ccc([N+](=O)[O-])cc2NC1O)c1cccc([N+](=O)[O-])c1 (configuration not stated)
inactive: [1] 14 µM | [2] 56.9 µM | [3] 14.5 µM | [15] 12.1 µM | [4] > 100 µM | [16] 53.5 µM | [5] 32.8 µM | [6] > 100 µM | [8] 38.4 µM | [9] 4.16 µM | [11] 53.2 µM | [13] 46.3 µM | [14] 21 µM

C1=CC(N(c2ccccc2)C2C=CCCC2)CCC1 (configuration not stated)
inactive: [1] > 100 µM | [2] > 100 µM | [3] > 100 µM | [15] > 100 µM | [4] > 100 µM | [5] 69.8 µM | [6] 35.8 µM | [11] > 100 µM | [14] > 100 µM
